By MIC is commonly meant the least concentration at which growth counts as inhibited.

SMILES strings stand for the structures.

This assay has as its system Eschericia coli (E. coli) strain ATCC25922. Briefly: Standard microdilution assay, MIC against E. coli ATCC25922. It is filed as cell-based. Particulars: Escherichia coli; E. coli strain ATCC25922, standard microdilution assay; cutoff 16 micrograms/mL; read-out: MIC E. Coli. Put shortly:
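Scoring as + or − used a 16 micrograms/mL cutoff on minimum inhibitory concentrations. These came from CLSI-standard microdilution, quality-controlled with reference strains tested in the same run.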
In general terms: Dilution methods test growth across graded concentrations, often in twofold steps.
`C[C@H](N)CCCc1cc(Cl)c(F)c(-c2cc3cn(-c4ccc(CNCC[C@H](CCO)NC(=N)N)cc4)c(=O)nc3[nH]2)c1` [Compound 185]: the MIC was < 16 µg/mL. With `C=CCC[C@H](NCCCNC(=N)N)c1ccc(-n2cc3cc(-c4cc(CCC[C@H](C)N)cc(SC(F)(F)F)c4)[nH]c3nc2=O)cc1` [Compound 82], the MIC is < 16 µg/mL.

For `CC[C@@H](CCNCc1ccc(-n2cc3cc(-c4cc(CCC[C@H](C)N)cc(Cl)c4F)[nH]c3nc2=O)cc1)NC(=N)N` [Compound 183], the MIC is < 16 µg/mL.

In the case of `C[C@H](N)CCCc1cc(Cl)c(F)c(-c2cc3cn(-c4ccc(CNCC[C@@H](C)N)cc4)c(=O)nc3[nH]2)c1` [Compound 187], the MIC is < 16 µg/mL. As for `COCC[C@H](NCCCNC(=N)N)c1ccc(-n2cc3cc(-c4cc(CCC[C@H](C)N)cc(C(F)(F)F)c4)[nH]c3nc2=O)cc1` [Compound 28], the MIC is < 16 µg/mL. With `C=C[C@@H](N)CC[C@@H](O)c1cc(SC(F)(F)F)cc(-c2cc3cn(-c4ccc([C@H](C)NCCCNC(=N)N)cc4)c(=O)nc3[nH]2)c1` [Compound 79], the MIC is < 16 µg/mL.

`C[C@H](N)CCCc1cc(Cl)c(F)c(-c2cc3cn(-c4ccc(CNCc5c[nH]nn5)cc4)c(=O)nc3[nH]2)c1` [Compound 119]: the MIC was > 16 µg/mL. In the case of `C[C@H](N)CCCc1cc(Cl)c(F)c(-c2cc3cn(-c4ccc([C@H](Cc5c[nH]nn5)NCCCNC(=N)N)cc4)c(=O)nc3[nH]2)c1` [Compound 46], the minimum inhibitory concentration (MIC) was < 16 µg/mL. Turning to `C[C@H](N)CCCc1cc(OC(F)(F)F)c(F)c(-c2cc3cn(-c4ccc([C@H](C)NCC[C@@H](Cc5c[nH]nn5)NC(=N)N)cc4)c(=O)nc3[nH]2)c1` [Compound 268], the MIC is < 16 µg/mL. As for `C[C@H](N)CCCc1cc(Cl)c(F)c(-c2cc3cn(-c4ccc([C@H](CCNc5nccs5)NCCCNC(=N)N)cc4)c(=O)nc3[nH]2)c1` [Compound 85], the minimum inhibitory concentration (MIC) was < 16 µg/mL. Consider `C[C@H](N)CCCc1cc(OC(F)(F)F)c(F)c(-c2cc3cn(-c4ccc([C@H](C)NCC[C@H](CO)NC(=N)N)cc4)c(=O)nc3[nH]2)c1` [Compound 263], for which the MIC is < 16 µg/mL. Regarding `C[C@H](N)CCCc1cc(OC(F)(F)F)c(F)c(-c2cc3cn(-c4ccc([C@H](C)NCC[C@H](C)NC(=N)N)cc4)c(=O)nc3[nH]2)c1` [Compound 224], the MIC was < 16 µg/mL. On to `C=C[C@@H](CCNCc1ccc(-n2cc3cc(-c4cc(CCC[C@H](C)N)cc(Cl)c4F)[nH]c3nc2=O)cc1)NC(=N)N` [Compound 177], for which the MIC is < 16 µg/mL. Take `C[C@H](N)CCCc1cc(SC(F)(F)F)cc(-c2cc3cn(-c4ccc([C@@H](CF)NCCCNC(=N)N)cc4)c(=O)nc3[nH]2)c1` [Compound 96]: the MIC is < 16 µg/mL.

Regarding `C[C@H](N)CC[C@@H](O)c1cc(SC(F)(F)F)cc(-c2cc3cn(-c4ccc([C@H](C)NCCCNC(=N)N)cc4)c(=O)nc3[nH]2)c1` [Compound 65], the MIC was < 16 µg/mL. `COC[C@H](N)CCCc1cc(Cl)c(F)c(-c2cc3cn(-c4ccc([C@H](C)NCCCNC(=N)N)cc4)c(=O)nc3[nH]2)c1` [Compound 171]: the MIC is < 16 µg/mL.

With `C[C@H](N)CCCc1cc(OC(F)(F)F)c(F)c(-c2cc3cn(-c4ccc([C@H](C)NCC[C@@H](CCCN)NC(=N)N)cc4)c(=O)nc3[nH]2)c1` [Compound 283], the MIC is < 16 µg/mL. As to `C[C@H](N)CCCc1cc(Cl)c(F)c(-c2cc3cn(-c4ccc([C@H](C)NCCCN(C)C(=N)N)cc4)c(=O)nc3[nH]2)c1` [Compound 205], the MIC was < 16 µg/mL.

For the molecule `C[C@H](N)CCCc1cc(OC(F)(F)F)c(F)c(-c2cc3cn(-c4ccc([C@H](C)NCC[C@H](CCC#N)NC(=N)N)cc4)c(=O)nc3[nH]2)c1` [Compound 315], the MIC was < 16 µg/mL. As for `C[C@H](N)CCCc1cc(Cl)c(F)c(-c2cc3cn(-c4ccc(CNCCC(N)C(F)(F)F)cc4)c(=O)nc3[nH]2)c1` (some centres unmarked) [Compound 172], the MIC is > 16 µg/mL.

Take `C[C@H](N)CCCc1cc(Cl)c(F)c(-c2cc3cn(-c4ccc([C@@H](N)CCNc5nccs5)cc4)c(=O)nc3[nH]2)c1` [Compound 153]: the minimal inhibitory concentration (MIC) is > 16 µg/mL. For the molecule `C[C@H](N)CCCc1cc(SC(F)(F)F)cc(-c2cc3cn(-c4ccc([C@@H](N)CCNc5nccs5)cc4)c(=O)nc3[nH]2)c1` [Compound 157], the MIC was > 16 µg/mL. In the case of `CC(=O)Oc1ccccc1C(=O)OC[C@H](N)CCCc1cc(Cl)c(F)c(-c2cc3cn(-c4ccc([C@H](C)NCCCNC(=N)N)cc4)c(=O)nc3[nH]2)c1` [Compound 316], the MIC was < 16 µg/mL. As for `CCOC(=N)CNCc1ccc(-n2cc3cc(-c4cc(CCC[C@H](C)N)cc(Cl)c4F)[nH]c3nc2=O)cc1` [Compound 166], the MIC was > 16 µg/mL. Regarding `C[C@H](N)CCCc1cc(SC(F)(F)F)cc(-c2cc3cn(-c4ccc(CNCC#N)cc4)c(=O)nc3[nH]2)c1` [Compound 170], the MIC was > 16 µg/mL. For the molecule `CNCCCN[C@@H](C)c1ccc(-n2cc3cc(-c4cc(CCC[C@H](C)N)cc(Cl)c4F)[nH]c3nc2=O)cc1` [Compound 208], the MIC was < 16 µg/mL.

Regarding `C[C@H](N)CCCc1cc(Cl)c(F)c(-c2cc3cn(-c4ccc(CNCc5ccc(=O)[nH]c5)cc4)c(=O)nc3[nH]2)c1` [Compound 149], the MIC was > 16 µg/mL.

As for `C[C@H](N)CCCc1cc(SC(F)(F)F)cc(-c2cc3cn(-c4ccc(CNCc5nn[nH]n5)cc4)c(=O)nc3[nH]2)c1` [Compound 163], the minimal inhibitory concentration (MIC) was > 16 µg/mL.

`C[C@H](N)CCCc1cc(Cl)c(F)c(-c2cc3cn(-c4ccc([C@H](CO)NCCCNC(=N)N)cc4)c(=O)nc3[nH]2)c1` [Compound 103]: the MIC was < 16 µg/mL. With `C[C@H](N)CCCc1cc(-c2cc3cn(-c4ccc([C@H](C)N[C@H](C)CCNC(=N)N)cc4)c(=O)nc3[nH]2)cc(C(F)(F)F)c1` [Compound 226] the figure was < 16 µg/mL; with `C[C@H](N)CCCc1cc(OC(F)(F)F)c(F)c(-c2cc3cn(-c4ccc([C@H](C)NCC[C@H](C)N)cc4)c(=O)nc3[nH]2)c1` [Compound 223], < 16 µg/mL. `C[C@H](N)CCCc1cc(Cl)c(F)c(-c2cc3cn(-c4ccc(CNCc5ccncc5)cc4)c(=O)nc3[nH]2)c1` [Compound 127]: the MIC was > 16 µg/mL. With `C[C@H](N)CCCc1cc(Cl)c(F)c(C#Cc2cn(-c3ccc([C@H](C)NCCCNC(=N)N)cc3)c(=O)nc2N)c1` [Compound 241], the MIC is < 16 µg/mL. As for `COC(=O)CCNCc1ccc(-n2cc3cc(-c4cc(CCC[C@H](C)N)cc(SC(F)(F)F)c4)[nH]c3nc2=O)cc1` [Compound 141], the MIC was > 16 µg/mL. With `CC[C@H](N)COCc1cc(SC(F)(F)F)cc(-c2cc3cn(-c4ccc([C@H](C)NCCCNC(=N)N)cc4)c(=O)nc3[nH]2)c1` [Compound 64] the figure was < 16 µg/mL; with `C[C@H](N)CCCc1cc(Cl)c(F)c(-c2cc3cn(-c4ccc([C@H](Cc5cccnc5)NCCCNC(=N)N)cc4)c(=O)nc3[nH]2)c1` [Compound 56], < 16 µg/mL.

Regarding `C[C@H](N)CCCc1cc(OC(F)(F)F)c(F)c(-c2cc3cn(-c4ccc([C@H](C)N[C@H](C)CCNC(=N)N)cc4)c(=O)nc3[nH]2)c1` [Compound 233], the MIC is < 16 µg/mL. Take `C[C@H](NCCCNC(=N)N)c1ccc(-n2cc3cc(-c4cc(SC(F)(F)F)cc([C@H](O)CC[C@H](N)CCO)c4)[nH]c3nc2=O)cc1` [Compound 132]: the MIC was < 16 µg/mL.

Turning to `CNCCNCc1ccc(-n2cc3cc(-c4cc(CCC[C@H](C)N)cc(SC(F)(F)F)c4)[nH]c3nc2=O)cc1` [Compound 124], the MIC is > 16 µg/mL.

Take `C[C@H](N)CCCc1cc(Cl)c(F)c(-c2cc3cn(-c4ccc(CN)cc4)c(=O)nc3[nH]2)c1` [Compound 136]: the MIC was > 16 µg/mL.

For `CC[C@@H](N)COCc1cc(SC(F)(F)F)cc(-c2cc3cn(-c4ccc([C@H](C)NCCCNC(=N)N)cc4)c(=O)nc3[nH]2)c1` [Compound 77], the MIC was < 16 µg/mL. In the case of `CC[C@@H](N)CCNCc1ccc(-n2cc3cc(-c4cc(CCC[C@H](C)N)cc(Cl)c4F)[nH]c3nc2=O)cc1` [Compound 197], the MIC was < 16 µg/mL. With `CNCCNCc1ccc(-n2cc(-c3cc4cn(-c5ccc(CNCCNC)cc5)c(=O)nc4[nH]3)c(N)nc2=O)cc1` [Compound 125], the MIC is > 16 µg/mL.

Consider `C[C@H](N)CCCc1cc(Cl)c(F)c(-c2cc3cn(-c4ccc([C@H](Cn5ccnn5)NCCCNC(=N)N)cc4)c(=O)nc3[nH]2)c1` [Compound 87], for which the MIC was < 16 µg/mL. For the molecule `C[C@H](N)CCCc1cc(Cl)c(F)c(-c2cc3cn(-c4ccc([C@H](CCCO)NCCCNC(=N)N)cc4)c(=O)nc3[nH]2)c1` [Compound 99], the MIC is < 16 µg/mL. For `C=C[C@H](CCNCc1ccc(-n2cc3cc(-c4cc(CCC[C@H](C)N)cc(Cl)c4F)[nH]c3nc2=O)cc1)NC(=N)N` [Compound 180], the MIC was < 16 µg/mL. The value for `C[C@H](N)CCCc1cc(-c2cn3cc(-c4ccc([C@H](C)NCCCNC(=N)N)cc4)c(=O)nc3[nH]2)cc(C(F)(F)F)c1` [Compound 298] was < 16 µg/mL; that for `COc1ccc(Cn2cc(C[C@H](NCCCNC(=N)N)c3ccc(-n4cc5cc(-c6cc(CCC[C@H](C)N)cc(Cl)c6F)[nH]c5nc4=O)cc3)nn2)cc1` [Compound 41] was < 16 µg/mL; that for `C[C@H](N)CCCc1cc(SC(F)(F)F)cc(-c2cc3cn(-c4ccc(CNCc5ccncc5)cc4)c(=O)nc3[nH]2)c1` [Compound 128] was > 16 µg/mL.

As to `C[C@H](N)CCCc1cc(-c2cc3cn(-c4ccc([C@H]5COC(=O)N5CCCNC(=N)N)cc4)c(=O)nc3[nH]2)cc(C(F)(F)F)c1` [Compound 98], the MIC is < 16 µg/mL. Regarding `C[C@H](N)CCCc1cc(SC(F)(F)F)cc(-c2cc3cn(-c4ccc([C@H](CCCO)NCCCNC(=N)N)cc4)c(=O)nc3[nH]2)c1` [Compound 100], the MIC is < 16 µg/mL. The value for `C[C@H](N)CCCc1cc(Cl)c(F)c(-c2cc3cn(-c4ccc(CNCC[C@@H](NC(=N)N)C5CC5)cc4)c(=O)nc3[nH]2)c1` [Compound 174] was < 16 µg/mL; that for `C[C@H](N)CCCc1cc(Cl)c(F)c(-c2cc3cn(-c4ccc(CNCC[C@H](CN)NC(=N)N)cc4)c(=O)nc3[nH]2)c1` [Compound 203] was < 16 µg/mL.

These data come from US10815238B2, “Antimicrobial compounds and methods of making and using the same” (BIOVERSYS AG, priority 2013, dated 2020).
